Usually CC50 stands for the concentration that lowers cell viability or growth by half.

The values below come from patent US11351221B2, “SMAC mimetic” (Medivir AB, priority 2009, dated 2022).

For one data set, the target named is T1, cIAP-1 (Homo sapiens, UniProt Q13490).
T1 construct: expressed in transfected cells; host or cells: A375 (A375Gc1)
Nature of the data set: cIAP degradation assay (GFP-cIAP-1). Format: cell-based. Here is the method:
(§1) Briefly, A375 cell lines expressing GFP-tagged cIAP-1 and cIAP-2 were generated by transfecting HA2xEGFP-pcDNA3 vector containing either cIAP-1 (A375Gc1) or cIAP-2 (A375Gc2) coding region. 2×10^4 of A375Gc1 or A375Gc2 cells were grown in 96-well plate and treated with various concentrations of test compounds for 2 h. After incubation, cells were collected by trypsinization and suspended in 150 μl of DMEM-10% FBS. A total of 10^4 cells were analyzed using a FACScan (Becton Dickinson). GFP fluorescence was monitored by using an excitation filter at 488 nm and emission was measured with a 530 nm filter.

Another data set concerns the target T2, cIAP-2 (Homo sapiens, UniProt Q13489).
T2 construct: expressed in transfected cells; host or cells: A375 (A375Gc2)
Nature of the data set: cIAP degradation assay (GFP-cIAP-2). To be noted: A375Gc2 cells, 2 h treatment, 50% of GFP signal inhibited (FACS); read-out: GFP-cIAP-2 IC50. It counts as cell-based. Here is the method: as §1, with “The concentration inducing degradation of cIAP-1 and cIAP-2 by 50% (IC50) for various compounds was determined by monitoring the disappearance of Green Fluorescent Protein (GFP)-signal in A375 cells. Briefly,” for “Briefly,”, “filter. IC50 is defined as the concentration of drug at which 50% of GFP signal was inhibited.” for “filter.”

Data set [1] relates to SKOV-3 ovarian tumor cell. Nature of the data set: SKOV-3 cytotoxicity (MTT assay). It counts as cell-based. As to conditions: Homo sapiens, SK-OV-3 cells, 72 hrs, concentration giving 50% cell survival. Here is the method: SKOV-3 ovarian tumor cell cytotoxicity data were generated substantially as follows. The MTT (3-(4,5-Dimethylthiazol-2-yl)-2,5-diphenyltetrazolium bromide) assay is an example of an assay that has been used for measuring cell growth as previously described (Hansen, M. B., Nielsen, S. E., and Berg, K. (1989) J. Immunol Methods 119, 203-210) and incorporated herein by reference in its entirety. Briefly, SK-OV-3 cells were seeded in 96-well plates in McCoy's medium containing 10% fetal bovine serum albumin (5,000 per well) and incubated overnight at 37° C. The next day, test compounds were added at various concentrations (0.003-10 μM) and the plates were incubated at 37° C. for an additional 72 hrs. This incubation time was optimal for measuring inhibitory effects of different analogs. Fifty microliters of 5 mg/mL MTT reagent to each well was added and the plates were incubated at 37° C. for 3 hours. At the end of the incubation period, 50 microliters of DMSO was added to each well to dissolve cells and the optical density (OD) of the wells was measured using a microplate reader (Victor^2 1420, Wallac, Finland) at 535 nm. Cell survival (CS) was calculated by the following equation: CS=(OD treated well/mean OD control wells)×100%
The CC50, defined as the drug concentration that results in 50% CS, was derived by calculating the point where the dose-response curve crosses the 50% CS point using GraphPad Prism.
Background: Tetrazolium dyes change colour on reduction, which living cells bring about.

The format of data set [2] is in vivo. To be noted: rat. The text has this:
Body weight loss (BWL), mortality and additional toxicity data were generated substantially as follows. […] Body weights were taken on day 4 and are shown as percent change from day 1.

Each structure is given as a SMILES string.

T1 sequence (Q13490 whole entry, species assumed): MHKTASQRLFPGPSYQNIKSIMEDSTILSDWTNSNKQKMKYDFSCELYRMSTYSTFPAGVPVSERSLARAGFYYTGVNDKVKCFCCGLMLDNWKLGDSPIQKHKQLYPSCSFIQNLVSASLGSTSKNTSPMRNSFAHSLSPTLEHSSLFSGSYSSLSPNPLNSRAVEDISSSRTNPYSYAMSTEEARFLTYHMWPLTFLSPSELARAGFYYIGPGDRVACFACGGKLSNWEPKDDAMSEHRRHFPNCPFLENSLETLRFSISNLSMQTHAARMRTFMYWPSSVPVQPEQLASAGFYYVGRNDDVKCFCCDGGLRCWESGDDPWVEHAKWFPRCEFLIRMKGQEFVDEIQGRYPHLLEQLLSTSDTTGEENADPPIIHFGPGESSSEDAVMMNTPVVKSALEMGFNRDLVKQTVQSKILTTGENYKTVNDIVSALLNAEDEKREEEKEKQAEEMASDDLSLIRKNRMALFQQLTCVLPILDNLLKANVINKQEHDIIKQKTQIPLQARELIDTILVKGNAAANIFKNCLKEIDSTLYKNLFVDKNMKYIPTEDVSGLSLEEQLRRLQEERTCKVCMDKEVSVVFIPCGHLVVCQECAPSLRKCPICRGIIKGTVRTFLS
T2 sequence (Q13489 whole entry, species assumed): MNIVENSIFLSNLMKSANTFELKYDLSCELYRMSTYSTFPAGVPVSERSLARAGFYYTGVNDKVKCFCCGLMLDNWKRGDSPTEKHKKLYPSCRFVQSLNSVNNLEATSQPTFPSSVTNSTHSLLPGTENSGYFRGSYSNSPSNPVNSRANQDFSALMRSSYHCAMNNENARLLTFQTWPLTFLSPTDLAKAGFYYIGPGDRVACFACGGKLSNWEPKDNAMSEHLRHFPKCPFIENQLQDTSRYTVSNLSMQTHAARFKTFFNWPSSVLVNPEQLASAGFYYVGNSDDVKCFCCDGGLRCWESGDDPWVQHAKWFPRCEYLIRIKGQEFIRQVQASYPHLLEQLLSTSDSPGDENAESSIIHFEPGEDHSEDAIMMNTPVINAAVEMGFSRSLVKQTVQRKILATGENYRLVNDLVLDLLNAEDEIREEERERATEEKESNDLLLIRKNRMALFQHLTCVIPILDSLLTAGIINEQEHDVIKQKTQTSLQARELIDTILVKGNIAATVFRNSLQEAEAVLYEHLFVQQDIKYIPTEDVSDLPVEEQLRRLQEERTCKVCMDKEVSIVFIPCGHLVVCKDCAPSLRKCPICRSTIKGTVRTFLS

For `CN[C@@H](C)C(=O)N[C@H](C(=O)N1C[C@@H](O)C[C@H]1Cc1c(-c2[nH]c3cc(F)ccc3c2C[C@@H]2C[C@H](O)CN2C(=O)[C@@H](NC(=O)[C@H](C)NC)[C@@H](C)OC)[nH]c2cc(F)ccc12)[C@@H](C)OC` [Compound 5], the DC50 at cIAP-1 (A375Gc1 cells, 2 h treatment, 50% of GFP signal inhibited (FACS), read-out: GFP-cIAP-1 IC50) stood at 10 nM. The “IC50 Ratio cIAP-2/cIAP-1” value at cIAP-1 (ratio of GFP-cIAP-2 to GFP-cIAP-1 degradation IC50) was 3.7. Further, at cIAP-2, the DC50 came to 37 nM. Also, in data set [1], the midpoint of cytotoxicity, the CC50, lay at 0.13 nM. Also, the Mortality result in data set [2] (3 mg/Kg, QDx4 i.v. bolus) is reported as “caused the animals to die”. Moreover, the Additional clinical observations entry in data set [2] (in vivo, 1 mg/kg) was “dehydration, ungroomed appearance, chromorhinorrhea, alopecia (head), and excessive scratching”. Also, in data set [2] (in vivo, 1 mg/kg/day), the “Bone marrow hypocellularity of the erythroid series (anatomic pathology)” value is listed as “marked to severe”; the “Hypercellularity of the myeloid series (anatomic pathology)” value was “mild to moderate”; the “Hypertrophy and hyperplasia of megakaryocytes (anatomic pathology)” value is recorded as “mild to moderate”; the “Type 2 pneumocyte hypertrophy/hyperplasia in the lungs (anatomic pathology)” value is listed as “mild to moderate”. Further, the Clinical signs result in data set [2] (in vivo, iv, 1 mg/kg/day) was “lethargy, increased/irregular respiration and increased heart rate”.
